Test results taken from the supplement of paper PMC10883282.
± gives the standard deviation of the averaged measurements.

Test system: RD
Experiment: relative viability vs DMSO control (72 h) (fraction); higher = more viable cells
Outline: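 Serially diluted compound, 2.5 µl from source plates spanning 10 mM to 0.0002 mM, was added 24 h after sarcoma cell lines were seeded in 384-well plates at densities targeting 80–90% confluence. Plates then sat 72 h at 37 °C, 5% CO2, with 0.1% DMSO vehicle and a 5 µM positive control. Relative viability came from ATPLite as percent growth, averaged over up to triplicate wells, and was rescaled with 1 as full and 0 as none.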

Compound | relative viability (0.00017 µM) | relative viability (0.00051 µM) | relative viability (0.00152 µM) | relative viability (0.00457 µM) | relative viability (0.01372 µM) | relative viability (0.04115 µM) | relative viability (0.1235 µM) | relative viability (0.3704 µM) | relative viability (1.111 µM) | relative viability (3.333 µM) | relative viability (10 µM)
Cc1ccc(F)c(NC(=O)Nc2ccc(-c3cccc4[nH]nc(N)c34)cc2)c1 [Linifanib] | 1.07 ± 0.027 | 1.07 ± 0.028 | 1.08 ± 0.039 | 1.124 ± 0.01 | 1.12 ± 0.025 | 1.1 ± 0.033 | 1.14 ± 0.018 | 1.14 ± 0.031 | 1.12 ± 0.031 | 1.11 ± 0.042 | 1.13 ± 0.029
CNC(=O)c1ccc(-c2cnc3ncc(Cc4ccc5ncccc5c4)n3n2)cc1F [Capmatinib] | 1.11 ± 0.025 | 1.1 ± 0.053 | 1.13 ± 0.037 | 1.15 ± 0.065 | 1.12 ± 0.028 | 1.12 ± 0.042 | 1.13 ± 0.077 | 1.14 ± 0.053 | 1.15 ± 0.072 | 1.13 ± 0.12 | 1.1 ± 0.1
CN1CCC(COc2cnc(-c3cccc(Cn4nc(-c5cccc(C#N)c5)ccc4=O)c3)nc2)CC1 [Tepotinib] | 1.03 ± 0.049 | 1.1 ± 0.084 | 1.09 ± 0.039 | 1.1 ± 0.055 | 1.12 ± 0.031 | 1.13 ± 0.049 | 1.12 ± 0.093 | 1.14 ± 0.029 | 1.1 ± 0.065 | 1.11 ± 0.031 | 0.941 ± 0.07
N#CC[C@H](C1CCCC1)n1cc(-c2ncnc3[nH]ccc23)cn1 [Ruxolitinib] | 0.965 ± 0.052 | 0.972 ± 0.049 | 0.965 ± 0.041 | 0.977 ± 0.059 | 0.97 ± 0.034 | 0.979 ± 0.044 | 0.973 ± 0.051 | 0.965 ± 0.058 | 0.976 ± 0.056 | 0.976 ± 0.092 | 0.895 ± 0.055
CC(C)(C)c1cc(NC(=O)Nc2ccc(-c3cn4c(n3)sc3cc(OCCN5CCOCC5)ccc34)cc2)no1 [Quizartinib] | 1.08 ± 0.04 | 1.07 ± 0.036 | 1.08 ± 0.035 | 1.08 ± 0.06 | 1.07 ± 0.035 | 1.06 ± 0.025 | 1.07 ± 0.05 | 1.05 ± 0.055 | 1.04 ± 0.025 | 0.942 ± 0.1 | 0.922 ± 0.065
COc1c(OCCCN2CCOCC2)ccc2c1N=C(NC(=O)c1cnc(N)nc1)N1CCN=C21 [Copanlisib] | 1.07 ± 0.038 | 1.06 ± 0.032 | 1.07 ± 0.082 | 0.77 ± 0.053 | 0.741 ± 0.098 | 0.61 ± 0.01 | 0.438 ± 0.019 | 0.328 ± 0.011 | 0.268 ± 0.013 | 0.225 ± 0.014 | 0.184 ± 0.015
Cc1ccc(NC(=O)c2ccc(CN3CCN(C)CC3)cc2)cc1Nc1nc(-c2cccnc2)cs1 [Masitinib] | 0.967 ± 0.042 | 0.962 ± 0.054 | 0.995 ± 0.039 | 1.03 ± 0.091 | 1.01 ± 0.096 | 0.995 ± 0.091 | 0.995 ± 0.1 | 0.976 ± 0.1 | 0.872 ± 0.074 | 0.587 ± 0.05 | 0.13 ± 0.02
Cn1cc(-c2cc3c(N4CCN(c5ncc([C@@](C)(N)c6ccc(F)cc6)cn5)CC4)ncnn3c2)cn1 [Avapritinib] | 1.04 ± 0.055 | 1.03 ± 0.031 | 1.06 ± 0.02 | 1.05 ± 0.041 | 1.05 ± 0.033 | 1.03 ± 0.045 | 1.04 ± 0.02 | 1.06 ± 0.043 | 1.03 ± 0.043 | 0.939 ± 0.03 | 0.813 ± 0.087
O=C(Cc1ccc(-c2ccc(OCCN3CCOCC3)cc2)cn1)NCc1ccccc1 [KX2-391] | 1.03 ± 0.04 | 1.07 ± 0.055 | 1.08 ± 0.04 | 1.07 ± 0.066 | 1.02 ± 0.022 | 0.633 ± 0.022 | 0.346 ± 0.077 | 0.296 ± 0.015 | 0.304 ± 0.0065 | 0.308 ± 0.027 | 0.286 ± 0.034
CO[C@H]1C[C@@H]2CC[C@@H](C)[C@@](O)(O2)C(=O)C(=O)N2CCCC[C@H]2C(=O)O[C@H]([C@H](C)C[C@@H]2CC[C@@H](OP(C)(C)=O)[C@H](OC)C2)CC(=O)[C@H](C)/C=C(\C)[C@@H](O)[C@@H](OC)C(=O)[C@H](C)C[C@H](C)/C=C/C=C/C=C/1C [Ridaforolimus] | 1.06 ± 0.032 | 1.05 ± 0.049 | 0.921 ± 0.01 | 0.847 ± 0.02 | 0.753 ± 0.038 | 0.75 ± 0.036 | 0.764 ± 0.029 | 0.71 ± 0.053 | 0.715 ± 0.071 | 0.701 ± 0.053 | 0.683 ± 0.05
CCc1cc2c(cc1N1CCC(N3CCOCC3)CC1)C(C)(C)c1[nH]c3cc(C#N)ccc3c1C2=O [Alectinib] | 1.12 ± 0.056 | 1.09 ± 0.022 | 1.09 ± 0.051 | 1.1 ± 0.044 | 1.11 ± 0.049 | 1.11 ± 0.038 | 1.13 ± 0.045 | 1.11 ± 0.044 | 1.09 ± 0.024 | 1.054 ± 0.0068 | 1.05 ± 0.037
C[C@@H](c1ccc2nccn2c1)n1nnc2ncc(-c3cnn(C)c3)nc21 [Volitinib] | 1.11 ± 0.027 | 1.11 ± 0.036 | 1.14 ± 0.03 | 1.12 ± 0.039 | 1.11 ± 0.022 | 1.1 ± 0.02 | 1.14 ± 0.016 | 1.14 ± 0.023 | 1.09 ± 0.017 | 1.07 ± 0.037 | 1.02 ± 0.037
CC1(C)CNc2cc(NC(=O)c3cccnc3NCc3ccncc3)ccc21 [Motesanib] | 0.967 ± 0.013 | 0.964 ± 0.041 | 0.973 ± 0.046 | 0.96 ± 0.046 | 0.965 ± 0.04 | 0.989 ± 0.051 | 0.962 ± 0.032 | 0.975 ± 0.028 | 0.996 ± 0.056 | 1.03 ± 0.034 | 0.987 ± 0.066
CN1CCN(c2ccc3nc(-c4c(N)c5c(F)cccc5[nH]c4=O)[nH]c3c2)CC1 [Dovitinib] | 0.963 ± 0.05 | 0.983 ± 0.064 | 0.991 ± 0.072 | 0.985 ± 0.053 | 0.978 ± 0.099 | 0.995 ± 0.074 | 0.998 ± 0.071 | 0.99 ± 0.072 | 0.812 ± 0.073 | 0.632 ± 0.05 | 0.113 ± 0.035
CNC(=O)c1cc(Oc2ccc(NC(=O)Nc3ccc(Cl)c(C(F)(F)F)c3)c(F)c2)ccn1 [Regorafenib] | 1.06 ± 0.017 | 1.11 ± 0.028 | 1.13 ± 0.052 | 1.14 ± 0.089 | 1.13 ± 0.075 | 1.14 ± 0.063 | 1.12 ± 0.04 | 1.01 ± 0.058 | 0.877 ± 0.069 | 0.787 ± 0.05 | 0.558 ± 0.048
Cc1nc(NC(=O)N2CCC[C@H]2C(N)=O)sc1-c1ccnc(C(C)(C)C(F)(F)F)c1 [Alpelisib] | 1.04 ± 0.032 | 1.068 ± 0.0091 | 1.04 ± 0.056 | 1.07 ± 0.041 | 1.05 ± 0.052 | 1.03 ± 0.1 | 0.932 ± 0.045 | 0.851 ± 0.083 | 0.7 ± 0.055 | 0.594 ± 0.024 | 0.557 ± 0.044
CCN1CCN(Cc2ccc(Nc3ncc(F)c(-c4cc(F)c5nc(C)n(C(C)C)c5c4)n3)nc2)CC1 [Abemaciclib] | 1.12 ± 0.06 | 1.14 ± 0.056 | 1.09 ± 0.05 | 1.11 ± 0.054 | 1.1 ± 0.059 | 1.07 ± 0.081 | 1.06 ± 0.078 | 1.07 ± 0.036 | 1.1 ± 0.072 | 1.04 ± 0.049 | 0.863 ± 0.039
CC[C@H](Nc1ncnc2[nH]cnc12)c1nc2cccc(F)c2c(=O)n1-c1ccccc1 [Idelalisib] | 1.08 ± 0.039 | 1.11 ± 0.035 | 1.12 ± 0.06 | 1.13 ± 0.042 | 1.13 ± 0.036 | 1.13 ± 0.039 | 1.1 ± 0.076 | 1.12 ± 0.062 | 1.1 ± 0.066 | 1.04 ± 0.06 | 0.927 ± 0.029
C=CC(=O)N1CCC[C@@H](n2nc(-c3ccc(Oc4ccccc4)cc3)c3c(N)ncnc32)C1 [Ibrutinib] | 1.08 ± 0.04 | 1.11 ± 0.053 | 1.09 ± 0.032 | 1.13 ± 0.07 | 1.14 ± 0.063 | 1.12 ± 0.054 | 1.15 ± 0.062 | 1.15 ± 0.079 | 1.14 ± 0.083 | 1.13 ± 0.037 | 0.984 ± 0.058
